The source of these data is patent publication US8778966B2, “Quinolinone derivatives as PARP and tank inhibitors” (Janssen Pharmaceutica, NV, priority 2007, dated 2014).

In assay [1] the target is T1, Human PARP-1 enzyme (Homo sapiens, UniProt P09874).
T1 construct: purchased Trevigen
As to the kind of experiment: In vitro Scintillation Proximity Assay (SPA) for PARP-1 inhibitory activity. The class given is biochemical. As to conditions: read-out: in vitro SPA assay PARP-1 pIC50 (converted). A digest of the protocol:
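SPA assay: nicked-DNA-activated PARP-1 (0.1–0.2 μg/ml) ADP-ribosylates biotinylated histones (2 μg/ml) using [3H]-NAD+, 20 min at RT in Tris pH 8/DTT/MgCl2, stopped with 2 mM NAD+. Blank-subtracted cpm expressed as % control; IC50 by linear interpolation, reported as pIC50 (10−5 to 3×10−9 M tested).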
A general note: Scintillation proximity formats need no separation of bound from free tracer.

For assay [2], the system named is PC-3 cells. As to the kind of experiment: Antiproliferative activity, Alamar Blue assay, PC-3 cells. The class given is cell-based, human. As to conditions: for IC50: Homo sapiens, PC-3, PC3 cells, read-out: PC3 antiproliferative activity pIC50 (converted). The method, boiled down:
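Resazurin-based fluorescence (540 nm ex/590 nm em) measured after 4-day compound treatment plus 24 hrs dye incubation at 37° C. Cells plated at 4.5×10^3 cells/ml, adhered 24 hr first. pIC50 from probit-derived IC50 on % viable cells versus untreated, triplicate wells.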
For orientation: Alamar Blue is a resazurin reagent that responds to reducing activity.

Where two headings read alike, the source gives them in different places.

T1 sequence (P09874 whole entry): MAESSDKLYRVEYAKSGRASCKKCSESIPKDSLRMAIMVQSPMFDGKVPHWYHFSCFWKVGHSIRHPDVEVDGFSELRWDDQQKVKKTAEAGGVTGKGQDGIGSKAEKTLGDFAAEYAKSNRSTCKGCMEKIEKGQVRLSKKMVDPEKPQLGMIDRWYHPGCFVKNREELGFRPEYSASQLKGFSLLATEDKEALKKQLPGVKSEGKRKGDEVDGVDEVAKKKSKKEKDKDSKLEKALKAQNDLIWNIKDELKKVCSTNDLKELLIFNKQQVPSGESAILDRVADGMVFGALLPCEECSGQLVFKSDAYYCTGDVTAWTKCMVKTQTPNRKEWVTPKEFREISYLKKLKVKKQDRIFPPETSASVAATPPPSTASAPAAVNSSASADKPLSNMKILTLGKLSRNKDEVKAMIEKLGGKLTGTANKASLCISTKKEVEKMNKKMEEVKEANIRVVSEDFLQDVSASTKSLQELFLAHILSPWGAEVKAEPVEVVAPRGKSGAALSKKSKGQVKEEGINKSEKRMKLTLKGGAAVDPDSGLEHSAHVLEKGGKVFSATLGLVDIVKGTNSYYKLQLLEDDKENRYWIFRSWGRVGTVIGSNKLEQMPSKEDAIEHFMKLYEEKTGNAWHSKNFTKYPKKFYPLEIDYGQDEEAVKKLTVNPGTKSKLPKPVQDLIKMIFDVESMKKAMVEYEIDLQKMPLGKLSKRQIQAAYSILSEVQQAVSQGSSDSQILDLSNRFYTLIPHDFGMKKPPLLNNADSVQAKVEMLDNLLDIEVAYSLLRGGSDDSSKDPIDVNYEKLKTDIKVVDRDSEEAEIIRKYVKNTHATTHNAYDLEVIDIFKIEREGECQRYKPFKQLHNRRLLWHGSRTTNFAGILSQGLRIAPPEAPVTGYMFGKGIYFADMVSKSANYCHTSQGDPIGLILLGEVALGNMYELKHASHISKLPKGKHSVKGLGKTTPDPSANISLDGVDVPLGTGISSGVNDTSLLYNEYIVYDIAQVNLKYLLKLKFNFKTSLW

Turning to `CCc1cc2ccc(C(C)(C#N)Cc3cccc(C#N)n3)cc2[nH]c1=O` (single isomer, unassigned) [Compound 206], in assay [1], the IC50 is 50.1 nM. Consider `CCc1cc2ccc(C(C)(C#N)Cc3cccc(C#N)n3)cc2[nH]c1=O` (single isomer, unassigned) [Compound 207], for which, in assay [1], the IC50 is 39.8 nM. In addition, the “PC3 antiproliferative activity pIC50” value in assay [2] (PC3 cells, Alamar Blue) was found to be 6.8. For `CCc1cc2ccc([C@@](C)(C#N)Cc3cccc(N(C)C)c3)cc2[nH]c1=O` (single isomer, unassigned) [Compound 258], the values for the IC50 in assay [1] and in assay [2] (Alamar Blue) were 50.1 nM and 316 nM, respectively. With `CCc1cc2ccc([C@](C)(C#N)Cc3cccc(N(C)C)c3)cc2[nH]c1=O` (single isomer, unassigned) [Compound 259], the IC50 in assay [1] is 79.4 nM; in assay [2] (Alamar Blue), 10000 nM. On to `CCC[C@@](C#N)(Cc1ccccc1)c1ccc2cc(CC)c(=O)[nH]c2c1` (single isomer, unassigned) [Compound 263], for which the IC50 was 631 nM in assay [1] and 5010 nM in assay [2] (Alamar Blue). Consider `CCC[C@](C#N)(Cc1ccccc1)c1ccc2cc(CC)c(=O)[nH]c2c1` (single isomer, unassigned) [Compound 264], for which the IC50 was 398 nM in assay [1] and 10000 nM in assay [2] (Alamar Blue). `CCc1cc2ccc([C@@](C)(C#N)Cc3cccc(C#N)c3)cc2[nH]c1=O` (single isomer, unassigned) [Compound 268]: the values for the IC50 in assay [1] and in assay [2] (Alamar Blue) were 50.1 nM and 10000 nM, respectively. In the case of `CCc1cc2ccc([C@](C)(C#N)Cc3cccc(C#N)c3)cc2[nH]c1=O` (single isomer, unassigned) [Compound 269], the IC50 was 31.6 nM in assay [1] and 398 nM in assay [2] (Alamar Blue). With `CCc1cc2ccc([C@](C)(C#N)C[C@@H]3Cc4cc(C)ccc4O3)cc2[nH]c1=O` (single isomer, unassigned) [Compound 400], the IC50 is 398 nM in assay [1] and 10000 nM in assay [2] (Alamar Blue).

For the compound `C#Cc1cccc(C[C@](C)(C#N)c2ccc3cc(CC)c(=O)[nH]c3c2)c1` [Compound 2], the IC50 was 126 nM in assay [1] and 10000 nM in assay [2] (Alamar Blue). For the compound `C#Cc1cccc(C[C@@](C)(C#N)c2ccc3cc(CC)c(=O)[nH]c3c2)c1` [Compound 3], the results for the IC50 in assay [1] and in assay [2] (Alamar Blue) were 79.4 nM and 100 nM, respectively. Turning to `CCc1cc2ccc(C(C#N)(CC)Cc3ccccc3)cc2[nH]c1=O` (stereo not drawn) [Compound 32], the IC50 in assay [1] is 501 nM; in assay [2] it was 5010 nM. The matching figures for `COc1ccccc1-c1nc(CC(C)(C#N)c2ccc3cc(C)c(=O)[nH]c3c2)no1` (stereo not drawn) [Compound 33]: 1260 nM and 2510 nM. As for `Cc1cc2ccc(C(C)(C#N)Cc3cccc(C#N)c3)cc2[nH]c1=O` (stereo not drawn) [Compound 34], the IC50 in assay [1] was 794 nM; in assay [2], 631 nM. The like results for `Cc1cc2ccc([C@@](C)(C#N)Cc3cccc(C#N)c3)cc2[nH]c1=O` [Compound 35] were, in that order, 501 nM and greater than 10000 nM. The matching figures for `Cc1cc2ccc([C@](C)(C#N)Cc3cccc(C#N)c3)cc2[nH]c1=O` [Compound 36]: 1580 nM and 200 nM.

Turning to `Cc1cc2ccc(C(C)(C#N)Cc3cccc(Cl)c3)cc2[nH]c1=O` (stereo not drawn) [Compound 37], the IC50 in assay [1] is 2000 nM; in assay [2], 398 nM. Take `CC(C)c1cc2ccc(C(C)(C#N)Cc3ccccc3)cc2[nH]c1=O` (stereo not drawn) [Compound 38]: the IC50 in assay [1] and in assay [2] was greater than 10000 nM in each case. As to `CC(=O)c1cc2ccc(C(C)(C#N)Cc3ccccc3)cc2[nH]c1=O` (stereo not drawn) [Compound 39], the IC50 is 7940 nM in assay [1] and greater than 10000 nM in assay [2].

With `CCc1cc2ccc(C(C)(C#N)Cc3cccc(OC[C@@H](O)CO)c3)cc2[nH]c1=O` (stereo partly drawn) [Compound 56], the IC50 in assay [1] was 100 nM; in assay [2] (Alamar Blue) it was 6310 nM. For the compound `CCc1cc2ccc(C(C)(C#N)Cc3cccc(CCC#N)c3)cc2[nH]c1=O` (stereo not drawn) [Compound 169], the figures for the IC50 in assay [1] and in assay [2] (Alamar Blue) were 79.4 nM and 3160 nM, respectively. For the compound `CCc1cc2ccc(C(C)(C#N)Cc3cccc(CNS(C)(=O)=O)c3)cc2[nH]c1=O` (stereo not drawn) [Compound 170], the IC50 in assay [1] is 79.4 nM; in assay [2] (Alamar Blue), 10000 nM. Regarding `C=Cc1cccc(CC(C)(C#N)c2ccc3cc(CC)c(=O)[nH]c3c2)c1` (stereo not drawn) [Compound 172], the IC50 was 100 nM in assay [1] and 631 nM in assay [2] (Alamar Blue). With `CCc1cc2cc(F)c(C(C)(C#N)Cc3cccc(C#N)c3)cc2[nH]c1=O` (stereo not drawn) [Compound 175], the values for the IC50 in assay [1] and in assay [2] (Alamar Blue) were 200 nM and 1000 nM, respectively. In the case of `CCc1c(C)c2ccc(C(C)(C#N)Cc3cccc(C#N)c3)cc2[nH]c1=O` (stereo not drawn) [Compound 181], the IC50 is 100 nM in assay [1] and 3980 nM in assay [2] (Alamar Blue).

As for `CCc1cc2cc(OCCOC)c(C(C)(C#N)Cc3cccc(C#N)c3)cc2[nH]c1=O` (stereo not drawn) [Compound 182], the figures for the IC50 in assay [1] and in assay [2] (Alamar Blue) were 158 nM and 5010 nM, respectively.

With `CCc1cc2ccc(C(C)(C#N)Cc3cccc(C#CCO)c3)cc2[nH]c1=O` (stereo not drawn) [Compound 183], the IC50 in assay [1] was 63.1 nM; in assay [2] (Alamar Blue), 316 nM. With `CCc1cc2ccc(C(F)(C#N)Cc3ccccc3)cc2[nH]c1=O` (stereo not drawn) [Compound 187], the IC50 in assay [1] was 63.1 nM; in assay [2] (Alamar Blue), 7940 nM.

On to `CCc1cc2ccc(C(C)(C#N)CN(C)Cc3ccccc3)cc2[nH]c1=O` (stereo not drawn) [Compound 189], for which the IC50 in assay [1] is 398 nM; in assay [2] (Alamar Blue), 3160 nM.

As to `CCc1cc2ccc(C(C)(C#N)C(C)c3ccccc3)cc2[nH]c1=O` (stereo not drawn) [Compound 198], the figures for the IC50 in assay [1] and in assay [2] (Alamar Blue) were 126 nM and 2000 nM, respectively. For the compound `CCc1cc2ccc([C@](C)(C#N)[C@@H](C)c3ccccc3)cc2[nH]c1=O` [Compound 199], the results for the IC50 in assay [1] and in assay [2] (Alamar Blue) were 79.4 nM and 10000 nM, respectively. The like results for `CCc1cc2ccc([C@](C)(C#N)[C@H](C)c3ccccc3)cc2[nH]c1=O` [Compound 200] were, in that order, 251 nM and 1000 nM. Regarding `CCc1cc2ccc(C(C)(C#N)Cc3cccc(C#C[Si](C)(C)C)n3)cc2[nH]c1=O` (stereo not drawn) [Compound 210], the IC50 was 398 nM in assay [1] and 501 nM in assay [2] (Alamar Blue). Regarding `C#Cc1cccc(CC(C)(C#N)c2ccc3cc(CC)c(=O)[nH]c3c2)n1` (stereo not drawn) [Compound 211], the IC50 in assay [1] was 126 nM; in assay [2] (Alamar Blue), 501 nM. With `CCc1cc2ccc(C(C)(C#N)Cc3cccc(N(C)C)n3)cc2[nH]c1=O` (stereo not drawn) [Compound 213], the values for the IC50 in assay [1] and in assay [2] (Alamar Blue) were 63.1 nM and 501 nM, respectively.

Turning to `CCc1cc2ccc(C(C)(C#N)Cc3cccc(I)n3)cc2[nH]c1=O` (stereo not drawn) [Compound 214], the values for the IC50 in assay [1] and in assay [2] (Alamar Blue) were 50.1 nM and 631 nM, respectively. The matching figures for `CCOC(=O)c1cccc(CC(C)(C#N)c2ccc3cc(CC)c(=O)[nH]c3c2)n1` (stereo not drawn) [Compound 215]: 398 nM and 6310 nM. Consider `CCc1cc2ccc(C(C)(C#N)Cc3cccc(COC)n3)cc2[nH]c1=O` (stereo not drawn) [Compound 216], for which the figures for the IC50 in assay [1] and in assay [2] (Alamar Blue) were 398 nM and 10000 nM, respectively.

For `CCc1cc2ccc(C(C)(C#N)Cc3cccc(OCCOC)n3)cc2[nH]c1=O` (stereo not drawn) [Compound 219], the IC50 was 100 nM in assay [1] and 2510 nM in assay [2] (Alamar Blue). With `CCc1cc2ccc(C(C)(C#N)Cc3cccc(CN)n3)cc2[nH]c1=O` (stereo not drawn) [Compound 221], the IC50 was 79.4 nM in assay [1] and 1000 nM in assay [2] (Alamar Blue). The matching figures for `CCc1cc2ccc(C(C)(C#N)Cc3cccc(OCCO)c3)cc2[nH]c1=O` (stereo not drawn) [Compound 262]: 79.4 nM and 501 nM. For the compound `CCc1cc2ccc(C(C)(C#N)CCOc3cccc(C(F)(F)F)c3)cc2[nH]c1=O` (stereo not drawn) [Compound 274], the IC50 in assay [1] was 501 nM; in assay [2] (Alamar Blue), 3980 nM. `CCc1cc2ccc(C(C)(C#N)Cc3cccc(CN)c3)cc2[nH]c1=O` (stereo not drawn) [Compound 290]: the IC50 in assay [1] is 50.1 nM; in assay [2] (Alamar Blue), 501 nM.

On to `CCc1cc2ccc(C(C)(C#N)Cc3cccc(/C=C/S(C)(=O)=O)c3)cc2[nH]c1=O` (stereo not drawn) [Compound 292], for which the IC50 is 63.1 nM in assay [1] and 501 nM in assay [2] (Alamar Blue).

Consider `CCc1c(Cl)c2ccc(C(C)(C#N)Cc3cccc(C#N)c3)cc2[nH]c1=O` (stereo not drawn) [Compound 293], for which the IC50 in assay [1] was 398 nM; in assay [2] (Alamar Blue), 6310 nM. Take `CCc1cc2cc(OC)c(C(C)(C#N)Cc3ccccc3)cc2[nH]c1=O` (stereo not drawn) [Compound 294]: the IC50 in assay [1] was 251 nM; in assay [2] (Alamar Blue), 10000 nM. With `CCc1cc2ccc(C(C)(C#N)Cc3cccc(C#CCOC)c3)cc2[nH]c1=O` (stereo not drawn) [Compound 297], the IC50 in assay [1] was 79.4 nM; in assay [2] (Alamar Blue), 1000 nM. The like results for `CCc1cc2ccc(C(C)(C#N)Cc3cccc(C#CCN(C)C)c3)cc2[nH]c1=O` (stereo not drawn) [Compound 298] were, in that order, 501 nM and 6310 nM.

`CCc1cc2ccc(C(C)(C#N)CNCc3cccc(C#N)c3)cc2[nH]c1=O` (stereo not drawn) [Compound 301]: the IC50 in assay [1] is 100 nM; in assay [2] (Alamar Blue), 10000 nM. On to `CCc1cc2ccc(C(C)(C#N)Cc3cnc(Cl)nc3Cl)cc2[nH]c1=O` (stereo not drawn) [Compound 306], for which the IC50 in assay [1] is 79.4 nM; in assay [2] (Alamar Blue), 2000 nM. As for `COc1cc(OC)nc(CC(C)(C#N)c2ccc3cc(C)c(=O)[nH]c3c2)n1` (stereo not drawn) [Compound 308], the IC50 in assay [1] is 631 nM; in assay [2] (Alamar Blue) it was 316 nM. As for `CCOc1cc(OCC)nc(CC(C)(C#N)c2ccc3cc(CC)c(=O)[nH]c3c2)n1` (stereo not drawn) [Compound 309], the IC50 in assay [1] is 158 nM; in assay [2] (Alamar Blue), 2000 nM.

For `CCc1cc2ccc(C(C)(C#N)Cc3cccc(Cl)n3)cc2[nH]c1=O` (stereo not drawn) [Compound 310], the IC50 is 100 nM in assay [1] and 631 nM in assay [2] (Alamar Blue).
